Source: the NIST ThermoML archive (doi:10.1021/je400250u)

Columns and labels:
[1] = xn = mol fraction of the nth substance listed; conditions: 100 kPa, Liquid; for viscosity: Capillary tube (Ostwald / Ubbelohde) method; for mass density: Vibrating tube method
[2] = refractive index (Na D-line) (dimensionless); xn = mol fraction of the nth substance listed; conditions: 100 kPa, Liquid, Standard Abbe refractometry

C1CC[C@H]2CCCC[C@H]2C1 [cis-decahydronaphthalene] + CCCCCCCCCC
Conditions	mass density, [1] [kg/m3]	refractive index, [2]	viscosity, [1] [mPa·s]
293.15 K, x1 = 0.1006	744.89	–	1.006
293.15 K, x1 = 0.2055	759.79	–	1.09
293.15 K, x1 = 0.3009	773.95	–	1.197
293.15 K, x1 = 0.3965	788.64	–	1.366
293.15 K, x1 = 0.508	806.55	–	1.481
293.15 K, x1 = 0.6026	822.35	–	1.669
293.15 K, x1 = 0.7012	839.6	–	1.954
293.15 K, x1 = 0.7763	853.24	–	2.163
293.15 K, x1 = 0.8985	876.48	–	2.647
293.15 K, x1 = 1	896.85	–	3.355
298.15 K, x1 = 0.1006	741.18	1.415	0.933
298.15 K, x1 = 0.2055	756.08	1.421	1.015
298.15 K, x1 = 0.3009	770.21	1.427	1.107
298.15 K, x1 = 0.3965	784.9	1.4326	1.26
298.15 K, x1 = 0.508	802.83	1.4403	1.361
298.15 K, x1 = 0.6026	818.62	1.4464	1.53
298.15 K, x1 = 0.7012	835.86	1.4539	1.781
298.15 K, x1 = 0.7763	849.49	1.4594	1.964
298.15 K, x1 = 0.8985	872.71	1.4688	2.39
298.15 K, x1 = 1	893.06	1.4776	3.011
303.15 K, x1 = 0.1006	737.4	–	0.868
303.15 K, x1 = 0.2055	752.31	–	0.939
303.15 K, x1 = 0.3009	766.45	–	1.022
303.15 K, x1 = 0.3965	781.15	–	1.162
303.15 K, x1 = 0.508	799.07	–	1.255
303.15 K, x1 = 0.6026	814.86	–	1.406
303.15 K, x1 = 0.7012	832.1	–	1.633
303.15 K, x1 = 0.7763	845.72	–	1.792
303.15 K, x1 = 0.8985	868.93	–	2.168
303.15 K, x1 = 1	889.26	–	2.718
308.15 K, x1 = 0.1006	733.61	1.4109	0.812
308.15 K, x1 = 0.2055	748.53	1.4167	0.876
308.15 K, x1 = 0.3009	762.68	1.4227	0.95
308.15 K, x1 = 0.3965	777.38	1.4284	1.076
308.15 K, x1 = 0.508	795.31	1.4358	1.162
308.15 K, x1 = 0.6026	811.1	1.4422	1.298
308.15 K, x1 = 0.7012	828.33	1.4496	1.503
308.15 K, x1 = 0.7763	841.96	1.455	1.644
308.15 K, x1 = 0.8985	865.15	1.4647	1.979
308.15 K, x1 = 1	885.46	1.4736	2.47
313.15 K, x1 = 0.1006	729.8	–	0.76
313.15 K, x1 = 0.2055	744.74	–	0.82
313.15 K, x1 = 0.3009	758.9	–	0.887
313.15 K, x1 = 0.3965	773.6	–	0.996
313.15 K, x1 = 0.508	791.54	–	1.079
313.15 K, x1 = 0.6026	807.33	–	1.204
313.15 K, x1 = 0.7012	824.56	–	1.389
313.15 K, x1 = 0.7763	838.18	–	1.517
313.15 K, x1 = 0.8985	861.37	–	1.811
313.15 K, x1 = 1	881.65	–	2.252
318.15 K, x1 = 0.1006	725.99	1.4065	0.715
318.15 K, x1 = 0.2055	740.94	1.4127	0.771
318.15 K, x1 = 0.3009	755.1	1.4188	0.832
318.15 K, x1 = 0.3965	769.81	1.4251	0.924
318.15 K, x1 = 0.508	787.76	1.4319	1.007
318.15 K, x1 = 0.6026	803.55	1.4384	1.12
318.15 K, x1 = 0.7012	820.78	1.4456	1.286
318.15 K, x1 = 0.7763	834.4	1.4515	1.401
318.15 K, x1 = 0.8985	857.58	1.4611	1.666
318.15 K, x1 = 1	877.85	1.4696	2.063
323.15 K, x1 = 0.1006	722.16	–	0.674
323.15 K, x1 = 0.2055	737.12	–	0.725
323.15 K, x1 = 0.3009	751.29	–	0.781
323.15 K, x1 = 0.3965	766.01	–	0.859
323.15 K, x1 = 0.508	783.96	–	0.941
323.15 K, x1 = 0.6026	799.76	–	1.045
323.15 K, x1 = 0.7012	816.99	–	1.193
323.15 K, x1 = 0.7763	830.61	–	1.299
323.15 K, x1 = 0.8985	853.78	–	1.539
323.15 K, x1 = 1	874.05	–	1.898
